Converted amounts (≈) assume the structure as drawn. Where two headings read alike, the source gives them in different places.
Tests used:
[1] = physchem; assay type: physicochemical
Method: (§1) The retention time was 5.2 min. Other compounds were assayed spectrophotometrically.

[2] = 37°C
Method: In this procedure, 27.5 µL of a 5 x 10^-3 M solution of E2-CDS in acetonitrile was added to 2.75 mL of a solution containing 1 x 10^-4 M Fe(CN)6^-4, 0.06 M K^+, 0.001 M Fe(CN)6^-3. All solutions were made using water which had been boiled for 30 minutes and cooled while a stream of pyrogallol-scrubbed nitrogen passed through it. The E2-CDS was introduced via a syringe to the solution which was maintained at 37°C in a thermostated cell holder and contained in an anaerobic screw-top cuvette. […] For a given concentration of ferricyanide ions (6 x 10^-4 to 8 x 10^-3 M), the rate of disappearance of the E2-CDS was determined. This was done by calculating the decrease in the absorbance band at 360 nm (± 10 nm) subtracted from base line absorbance (500 ± 10 nm). A plot of the 1n [Abs] versus time gave a slope for the pseudo-first-order rate constant. This was done at several different ferricyanide ion concentrations. The obtained first-order rate constants were then plotted as a function of ferricyanide ion concentration generating a slope from which the second order rate constant (k0 s^-1 M^-1) was obtained. In examining the effect of 2-hydroxypropyl-β-cyclodextrin on the rate of E2-CDS oxidation, solutions containing the HPCD as well as those ions present in the first phase of the experiment were prepared. The second order constant was derived for each cyclodextrin concentration and a plot developed.

[3] = Aqueous solubility and stability of the E2-CDS-HPCD complex; assay type: physicochemical
Method: The E2-CDS-HPCD complex contains about 40 mg of E2-CDS/g and easily gives aqueous solutions containing 5 mg E2-CDS/mL at 20% w/v cyclodextrin. […] The halflife of E2-CDS in such a solution at room temperature in the dark is about 12.5 days (rate: 0.0554 ± 0.0047d^-1).

[4] = Preparation of solid freeze-dried HPCD complexes: degree of incorporation; assay type: physicochemical
Method: An excess of E2-CDS was added and the solution then was purged with helium. The resulting suspension was then sonicated for 30 minutes, filtered through a glass filter (ASTM 10-15M, Pyrex No. 36060) and freeze-dried overnight. Best results were obtained by hard-freezing the aqueous solution of the E2-CDS/HPCD complex for at least 10 hours before lyophilization. The degree of complex formation was determined by dissolving a small amount of the dry complex in methanol and then analyzing by high pressure liquid chromatography (HPLC).
An excess of E2-CDS or other CDS was added to a 50% w/w solution of HPCD. The suspension was sonicated for 30 minutes, filtered through 0.45 µm PVDF membranes and freeze-dried. The degree of incorporation was determined either spectrophotometrically or by HPLC. In some cases, the effect of solubilizing agents on the degree of incorporation was examined. This involved adding small amounts of polyoxyethylene 20 cetyl ether (Brij), polyoxyethylene sorbitan monooleate (Tween 80) or ethanol to the aqueous solution prior to lyophilization.
as §1
The solution was degassed and the suspension was sonicated for 30 minutes, after which it was filtered and the filtrate was lyophilized. The dried filtrate contained 65.6 mg testosterone propionate or 29.6 mg T-CDS1 per gram of cyclodextrin complex. Compounds were analyzed for decomposition by thin-layer chromatography and ultraviolet absorption.

[5] = Lung and brain concentrations in male rats after i.v. E2-CDS in DMSO or as HPCD complex (HPLC with pre-column enrichment); assay type: in vivo, Sprague-Dawley rats
Text: The loss of sensitivity resulting from the dilution step in the procedure optimal for pretreatment of biological samples (see sample preparation without extraction) could be compensated for by developing an HPLC system that allows injection of large volumes. A suitable HPLC-method which has been described in the literature [Roth et al, J. Chromatogr. 222: 13-22 (1981)] is based on alternating pre-column sample enrichment. The procedure used herein was as follows: The sample containing the drug is injected with a first pump A, delivering pure water, onto one of two pre-columns, which are alternatingly connected with the injection system by two pneumatically driven valves. Provided a certain lipophilicity, the drug is retained and concentrated on the pre-column, while accompanying water soluble-co-products like proteins are being washed out as long as water is pumped through the pre-column. This allows the direct injection of body fluids. After a certain enrichment time (6 and 8 minutes), simultaneous rotation of the two valves is induced, causing pre-column 1, where the injected drug has been absorbed, to be switched to the solvent stream of the second pump, B. Also, at this point, the recording integrator is started. Pump B delivers the mobile phase, necessary for separation and chromatography, and backflushes the sample from pre-column 1 onto the analytical column. Parallel to this process, pre-column 2 is switched to the water stream of pump A so that a sample can be injected and enriched while the previous one is being eluted (alternating mode). Volumes up to 1800 µL can be injected due to the concentration effect of the enrichment phase.
This system was applicable to the quantification of E2, E2-CDS and E2-Quat. The mobile phase for E2-CDS was: Acetonitrile/water 80:20 at a flow rate of 1.8 mL/minute. Optimal peak shape and retention time for E2 and E2-Ouat were obtained with pump B delivering a mixture of acetonitrile/water 42:58 which contained 0.025 M/L sodium salt of 1-octanesulfonic acid and 0.003 M/L tetrabutylammonium phosphate. […]

[6] = Solid complex of E2-CDS with maltosyl-β-cyclodextrin/dimaltosyl-β-cyclodextrin mixture; assay type: physicochemical
Method: In one example of the formulation of a solid complex, an excess of a representative CDS, E2-CDS, was added to a 40% aqueous solution of a mixture of maltosyl-β-cyclodextrin (71%) and various dimaltosyl-β-cyclodextrins (29%) obtained from Ensuiko Sugar Co., Ltd., Lot No. 88190, and mixed for several hours. The suspension was then filtered and freeze-dried, and the amount of complexed drug was determined analytically by UV spectraphotometry. The amount of incorporation was determined to be 81.88 mg/g.

[7] = 15 mg/kg in DMSO relative to 5 mg/kg as complex with HPCD in water, i.v., within the first hour

## CN1C=CCC(C(=O)O[C@H]2CC[C@H]3[C@@H]4CCc5cc(O)ccc5[C@H]4CC[C@]23C)=C1 [Example E2-CDS, 3-Hydroxy-17β-[(1-methyl-1,4-dihydropyridin-3-yl)carbonyl]oxyestra-1,3,5(10)-triene]
[1]
  increase in incorporation with the lower ASDS material: 15%
  increase in solubility over the solubility in water: 150,000 fold
  slope of millimolarity of E2-CDS solubilized versus millimolarity of HPCD added (estimation of bulk stability of the complex): 0.2
[1]; 10 mm aqueous β-cyclodextrin, Maximum Solubility
  solubility: 27 µg/mL (≈ 68.6 µM)
[1]; 10 mm aqueous γ-cyclodextrin, Maximum Solubility
  solubility: 22 µg/mL (≈ 55.9 µM)
[1]; 50 mm aqueous α-cyclodextrin, Maximum Solubility
  solubility: 5 µg/mL (≈ 12.7 µM)
[1]; 62.5% w/v aqueous hpcd, Maximum Solubility
  solubility: 30200 µg/mL (≈ 76700 µM)
[1]; water, Maximum Solubility (solubility of E2-CDS in water)
  solubility: 0.2 µg/mL (≈ 0.508 µM)
[1]; water, water solubility
  solubility: 0.2 µg/mL (≈ 0.508 µM)
[2]; 0.5% w/v cyclodextrin
  inhibition of second order rate of oxidation: 42%
[2]; 1.0% w/v cyclodextrin
  inhibition of second order rate of oxidation: 60%
[2]; 2% cyclodextrin
  inhibition of second order rate of oxidation: 81%
[2]; 5-20% cyclodextrin
  reduction in the second order rate of oxidation: approximately 90%
[3]; 5 mg E2-CDS/mL at 20% w/v cyclodextrin, room temperature in the dark
  rate (of degradation): 0.0554 ± 0.0047 day⁻¹
[3]; 20% w/v aqueous hpcd, 5 mg E2-CDS/mL at 20% w/v cyclodextrin, room temperature in the dark
  half-life: ~12.5 days
[3]; 20% w/v cyclodextrin versus water
  increase in aqueous solubility by complexation: 25,000 fold
[4]
  stability of the solid complex: stable as a dry powder
[4]; 50% (w/w) HPCD, freeze-dried
  degree of complexation: 20 to 40 mg/g
[4]; HPCD complex
  upper limit for a stable complex: approximately 40 mg/g
[4]; addition of Brij (0.7% w/w)
  degree of incorporation: 189 mg/g
[4]; addition of Brij (0.7% w/w), in 12 days
  degree of incorporation after storage: 42 mg/g
[4]; addition of Tween 80 (0.8% w/w) or ethanol (10% v/v)
  effect on degree of incorporation: only modest effects
[4]; freeze-dried complex from 50% w/w HPCD (ASDS 5.1)
  Amount of Drug in Dry Complex: 37 mg/g
[5]; [7]
  initial lung concentrations of E2-CDS, corrected for dose: more than ten-fold
  initial lung concentrations of E2-Quat, corrected for dose: more than ten-fold
[5]; after 1 hour, HPCD complex in water compared to DMSO
  brain levels of E2-Quat, corrected for dose: not significantly different
[6]; 40% aqueous maltosyl-β-cyclodextrin (71%) / dimaltosyl-β-cyclodextrins (29%), freeze-dried
  amount of incorporation: 81.88 mg/g
[6]; HPCD
  amount of incorporation, comparable figure: approximately 36.2 mg/g

From EP0335545B2, “Pharmaceutical formulations for parenteral use” (UNIVERSITY OF FLORIDA, priority 1988, dated 1989)
